# According to the supplement of paper PMC4862054:
# System: Hs578T
# Assay: normalised response (% of control), CellTiter-Glo; higher = more viable cells (100 = DMSO, 0 = benzethonium chloride kill control)
# Conditions: incubation time: 72 h
# Protocol: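 DSRT, 72 h incubation, CellTox Green / CellTiter-Glo readout. Signal is normalised to DMSO and benzethonium chloride controls. Value is the normalised response at the highest dose.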
row,SMILES,normalised response
1,COc1cc2c(Oc3ccc4[nH]c(C)cc4c3F)ncnc2cc1OCCCN1CCCC1 [Cediranib] (1000 nM),84.7%
2,Nc1nc2[nH]cc(CCc3ccc(C(=O)N[C@@H](CCC(=O)O)C(=O)O)cc3)c2c(=O)[nH]1 [Pemetrexed] (10000 nM),18.5%
3,C[C@H]1C[C@@H]2[C@H]([C@@H](O)C[C@@]3(C)[C@H]2CC[C@]3(O)C(=O)CO)[C@@]2(C)C=CC(=O)C=C12 [Methylprednisolone] (10000 nM),108%
4,CNC(=O)c1cc(Oc2ccc(NC(=O)Nc3cc(C(C)(C)C)nn3-c3ccc4ncccc4c3)c(F)c2)ccn1 [Rebastinib] (1000 nM),116%
5,CCN(CC)CCCC(C)Nc1c2ccc(Cl)cc2nc2ccc(OC)cc12 (configuration not stated) [Mepacrine] (50000 nM),97.7%
6,Nc1nc(F)nc2c1ncn2[C@@H]1O[C@H](CO)[C@@H](O)[C@@H]1O [Fludarabine] (10000 nM),98.3%
7,CCCS(=O)(=O)Nc1ccc(F)c(C(=O)c2c[nH]c3ncc(-c4ccc(Cl)cc4)cc23)c1F [Vemurafenib] (10000 nM),70.7%
8,O=C(O)C1(C(=O)O)CCC1.[NH2-].[NH2-].[Pt+2] [Carboplatin] (10000 nM),99.3%

# System: CAL-148
# Assay: normalised response (% of control), CellTox Green; higher = less cell death (100 = DMSO, 0 = benzethonium chloride kill control)
# Conditions: incubation time: 72 h
# Outline: (§1)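 Breast cancer cell lines in 20 µl suspension were added to 384-well plates containing compound at 5 concentrations, spaced in 10-fold steps across a 10,000-fold range chosen for each compound, and incubated for 72 h. CellTox Green fluorescence was read at 485/520 nm, followed by CellTiter-Glo luminescence after 10 min at room temperature. Signals on each plate were normalised so that 0.1 % DMSO equals 100 and a positive kill control equals 0. Every value in the table is the normalised signal at one concentration of the series.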
row,SMILES,normalised response
1,COc1cc2c(Oc3ccc4[nH]c(C)cc4c3F)ncnc2cc1OCCCN1CCCC1 [Cediranib] (1000 nM),101%
2,Nc1nc2[nH]cc(CCc3ccc(C(=O)N[C@@H](CCC(=O)O)C(=O)O)cc3)c2c(=O)[nH]1 [Pemetrexed] (10000 nM),102%
3,C[C@H]1C[C@@H]2[C@H]([C@@H](O)C[C@@]3(C)[C@H]2CC[C@]3(O)C(=O)CO)[C@@]2(C)C=CC(=O)C=C12 [Methylprednisolone] (10000 nM),93.7%
4,CNC(=O)c1cc(Oc2ccc(NC(=O)Nc3cc(C(C)(C)C)nn3-c3ccc4ncccc4c3)c(F)c2)ccn1 [Rebastinib] (1000 nM),101%
5,CCN(CC)CCCC(C)Nc1c2ccc(Cl)cc2nc2ccc(OC)cc12 (configuration not stated) [Mepacrine] (50000 nM),88%
6,Nc1nc(F)nc2c1ncn2[C@@H]1O[C@H](CO)[C@@H](O)[C@@H]1O [Fludarabine] (10000 nM),93%
7,CCCS(=O)(=O)Nc1ccc(F)c(C(=O)c2c[nH]c3ncc(-c4ccc(Cl)cc4)cc23)c1F [Vemurafenib] (10000 nM),75.7%
8,O=C(O)C1(C(=O)O)CCC1.[NH2-].[NH2-].[Pt+2] [Carboplatin] (10000 nM),97.8%

# System: HDQ-P1
# Assay: as above
# Conditions: incubation time: 72 h
# Outline: as §1
row,SMILES,normalised response
1,COc1cc2c(Oc3ccc4[nH]c(C)cc4c3F)ncnc2cc1OCCCN1CCCC1 [Cediranib] (1000 nM),102%
2,Nc1nc2[nH]cc(CCc3ccc(C(=O)N[C@@H](CCC(=O)O)C(=O)O)cc3)c2c(=O)[nH]1 [Pemetrexed] (10000 nM),111%
3,C[C@H]1C[C@@H]2[C@H]([C@@H](O)C[C@@]3(C)[C@H]2CC[C@]3(O)C(=O)CO)[C@@]2(C)C=CC(=O)C=C12 [Methylprednisolone] (10000 nM),111%
4,CCN(CC)CCCC(C)Nc1c2ccc(Cl)cc2nc2ccc(OC)cc12 (configuration not stated) [Mepacrine] (50000 nM),99.8%
5,Nc1nc(F)nc2c1ncn2[C@@H]1O[C@H](CO)[C@@H](O)[C@@H]1O [Fludarabine] (10000 nM),105%
6,CCCS(=O)(=O)Nc1ccc(F)c(C(=O)c2c[nH]c3ncc(-c4ccc(Cl)cc4)cc23)c1F [Vemurafenib] (10000 nM),98.9%
7,O=C(O)C1(C(=O)O)CCC1.[NH2-].[NH2-].[Pt+2] [Carboplatin] (10000 nM),80.6%

# System: DU-4475
# Assay: as above
# Conditions: incubation time: 72 h
# Outline: as §1
row,SMILES,normalised response
1,COc1cc2c(Oc3ccc4[nH]c(C)cc4c3F)ncnc2cc1OCCCN1CCCC1 [Cediranib] (1000 nM),103%
2,Nc1nc2[nH]cc(CCc3ccc(C(=O)N[C@@H](CCC(=O)O)C(=O)O)cc3)c2c(=O)[nH]1 [Pemetrexed] (10000 nM),96.7%
3,C[C@H]1C[C@@H]2[C@H]([C@@H](O)C[C@@]3(C)[C@H]2CC[C@]3(O)C(=O)CO)[C@@]2(C)C=CC(=O)C=C12 [Methylprednisolone] (10000 nM),103%
4,CNC(=O)c1cc(Oc2ccc(NC(=O)Nc3cc(C(C)(C)C)nn3-c3ccc4ncccc4c3)c(F)c2)ccn1 [Rebastinib] (1000 nM),99.7%
5,CCN(CC)CCCC(C)Nc1c2ccc(Cl)cc2nc2ccc(OC)cc12 (configuration not stated) [Mepacrine] (50000 nM),96.4%
6,Nc1nc(F)nc2c1ncn2[C@@H]1O[C@H](CO)[C@@H](O)[C@@H]1O [Fludarabine] (10000 nM),97.6%
7,CCCS(=O)(=O)Nc1ccc(F)c(C(=O)c2c[nH]c3ncc(-c4ccc(Cl)cc4)cc23)c1F [Vemurafenib] (10000 nM),77.1%
8,O=C(O)C1(C(=O)O)CCC1.[NH2-].[NH2-].[Pt+2] [Carboplatin] (10000 nM),99.8%

# System: MDA-MB-231
# Assay: as above
# Conditions: incubation time: 72 h
# Outline: as §1
row,SMILES,normalised response
1,COc1cc2c(Oc3ccc4[nH]c(C)cc4c3F)ncnc2cc1OCCCN1CCCC1 [Cediranib] (1000 nM),117%
2,Nc1nc2[nH]cc(CCc3ccc(C(=O)N[C@@H](CCC(=O)O)C(=O)O)cc3)c2c(=O)[nH]1 [Pemetrexed] (10000 nM),70.5%
3,C[C@H]1C[C@@H]2[C@H]([C@@H](O)C[C@@]3(C)[C@H]2CC[C@]3(O)C(=O)CO)[C@@]2(C)C=CC(=O)C=C12 [Methylprednisolone] (10000 nM),154%
4,CNC(=O)c1cc(Oc2ccc(NC(=O)Nc3cc(C(C)(C)C)nn3-c3ccc4ncccc4c3)c(F)c2)ccn1 [Rebastinib] (1000 nM),102%
5,Nc1nc(F)nc2c1ncn2[C@@H]1O[C@H](CO)[C@@H](O)[C@@H]1O [Fludarabine] (10000 nM),103%
6,CCCS(=O)(=O)Nc1ccc(F)c(C(=O)c2c[nH]c3ncc(-c4ccc(Cl)cc4)cc23)c1F [Vemurafenib] (10000 nM),87%
7,O=C(O)C1(C(=O)O)CCC1.[NH2-].[NH2-].[Pt+2] [Carboplatin] (10000 nM),103%

# System: CAL-51
# Assay: as above
# Conditions: incubation time: 72 h
# Outline: as §1
row,SMILES,normalised response
1,COc1cc2c(Oc3ccc4[nH]c(C)cc4c3F)ncnc2cc1OCCCN1CCCC1 [Cediranib] (1000 nM),96.8%
2,Nc1nc2[nH]cc(CCc3ccc(C(=O)N[C@@H](CCC(=O)O)C(=O)O)cc3)c2c(=O)[nH]1 [Pemetrexed] (10000 nM),87%
3,C[C@H]1C[C@@H]2[C@H]([C@@H](O)C[C@@]3(C)[C@H]2CC[C@]3(O)C(=O)CO)[C@@]2(C)C=CC(=O)C=C12 [Methylprednisolone] (10000 nM),119%
4,CNC(=O)c1cc(Oc2ccc(NC(=O)Nc3cc(C(C)(C)C)nn3-c3ccc4ncccc4c3)c(F)c2)ccn1 [Rebastinib] (1000 nM),99.7%
5,CCN(CC)CCCC(C)Nc1c2ccc(Cl)cc2nc2ccc(OC)cc12 (configuration not stated) [Mepacrine] (50000 nM),99.1%
6,Nc1nc(F)nc2c1ncn2[C@@H]1O[C@H](CO)[C@@H](O)[C@@H]1O [Fludarabine] (10000 nM),101%
7,CCCS(=O)(=O)Nc1ccc(F)c(C(=O)c2c[nH]c3ncc(-c4ccc(Cl)cc4)cc23)c1F [Vemurafenib] (10000 nM),65.3%
8,O=C(O)C1(C(=O)O)CCC1.[NH2-].[NH2-].[Pt+2] [Carboplatin] (10000 nM),97.1%

# System: MDA-MB-453
# Assay: as above
# Conditions: incubation time: 72 h
# Outline: as §1
row,SMILES,normalised response
1,COc1cc2c(Oc3ccc4[nH]c(C)cc4c3F)ncnc2cc1OCCCN1CCCC1 [Cediranib] (1000 nM),105%
2,Nc1nc2[nH]cc(CCc3ccc(C(=O)N[C@@H](CCC(=O)O)C(=O)O)cc3)c2c(=O)[nH]1 [Pemetrexed] (10000 nM),93%
3,C[C@H]1C[C@@H]2[C@H]([C@@H](O)C[C@@]3(C)[C@H]2CC[C@]3(O)C(=O)CO)[C@@]2(C)C=CC(=O)C=C12 [Methylprednisolone] (10000 nM),101%
4,CNC(=O)c1cc(Oc2ccc(NC(=O)Nc3cc(C(C)(C)C)nn3-c3ccc4ncccc4c3)c(F)c2)ccn1 [Rebastinib] (1000 nM),104%
5,CCN(CC)CCCC(C)Nc1c2ccc(Cl)cc2nc2ccc(OC)cc12 (configuration not stated) [Mepacrine] (50000 nM),61.2%
6,Nc1nc(F)nc2c1ncn2[C@@H]1O[C@H](CO)[C@@H](O)[C@@H]1O [Fludarabine] (10000 nM),98.5%
7,CCCS(=O)(=O)Nc1ccc(F)c(C(=O)c2c[nH]c3ncc(-c4ccc(Cl)cc4)cc23)c1F [Vemurafenib] (10000 nM),101%
8,O=C(O)C1(C(=O)O)CCC1.[NH2-].[NH2-].[Pt+2] [Carboplatin] (10000 nM),94.3%

# System: MDA-MB-436
# Assay: as above
# Conditions: incubation time: 72 h
# Outline: as §1
row,SMILES,normalised response
1,COc1cc2c(Oc3ccc4[nH]c(C)cc4c3F)ncnc2cc1OCCCN1CCCC1 [Cediranib] (1000 nM),94.6%
2,Nc1nc2[nH]cc(CCc3ccc(C(=O)N[C@@H](CCC(=O)O)C(=O)O)cc3)c2c(=O)[nH]1 [Pemetrexed] (10000 nM),80.4%
3,C[C@H]1C[C@@H]2[C@H]([C@@H](O)C[C@@]3(C)[C@H]2CC[C@]3(O)C(=O)CO)[C@@]2(C)C=CC(=O)C=C12 [Methylprednisolone] (10000 nM),91.9%
4,CNC(=O)c1cc(Oc2ccc(NC(=O)Nc3cc(C(C)(C)C)nn3-c3ccc4ncccc4c3)c(F)c2)ccn1 [Rebastinib] (1000 nM),85.7%
5,CCN(CC)CCCC(C)Nc1c2ccc(Cl)cc2nc2ccc(OC)cc12 (configuration not stated) [Mepacrine] (50000 nM),91.2%
6,Nc1nc(F)nc2c1ncn2[C@@H]1O[C@H](CO)[C@@H](O)[C@@H]1O [Fludarabine] (10000 nM),84.9%
7,CCCS(=O)(=O)Nc1ccc(F)c(C(=O)c2c[nH]c3ncc(-c4ccc(Cl)cc4)cc23)c1F [Vemurafenib] (10000 nM),92.7%
8,O=C(O)C1(C(=O)O)CCC1.[NH2-].[NH2-].[Pt+2] [Carboplatin] (10000 nM),99.8%

# System: HCC1937
# Assay: as above
# Conditions: incubation time: 72 h
# Outline: as §1
row,SMILES,normalised response
1,COc1cc2c(Oc3ccc4[nH]c(C)cc4c3F)ncnc2cc1OCCCN1CCCC1 [Cediranib] (1000 nM),114%
2,Nc1nc2[nH]cc(CCc3ccc(C(=O)N[C@@H](CCC(=O)O)C(=O)O)cc3)c2c(=O)[nH]1 [Pemetrexed] (10000 nM),99%
3,C[C@H]1C[C@@H]2[C@H]([C@@H](O)C[C@@]3(C)[C@H]2CC[C@]3(O)C(=O)CO)[C@@]2(C)C=CC(=O)C=C12 [Methylprednisolone] (10000 nM),94.8%
4,CNC(=O)c1cc(Oc2ccc(NC(=O)Nc3cc(C(C)(C)C)nn3-c3ccc4ncccc4c3)c(F)c2)ccn1 [Rebastinib] (1000 nM),107%
5,CCN(CC)CCCC(C)Nc1c2ccc(Cl)cc2nc2ccc(OC)cc12 (configuration not stated) [Mepacrine] (50000 nM),112%
6,Nc1nc(F)nc2c1ncn2[C@@H]1O[C@H](CO)[C@@H](O)[C@@H]1O [Fludarabine] (10000 nM),91.6%
7,CCCS(=O)(=O)Nc1ccc(F)c(C(=O)c2c[nH]c3ncc(-c4ccc(Cl)cc4)cc23)c1F [Vemurafenib] (10000 nM),78.4%
8,O=C(O)C1(C(=O)O)CCC1.[NH2-].[NH2-].[Pt+2] [Carboplatin] (10000 nM),101%

# System: CAL-85-1
# Assay: as above
# Conditions: incubation time: 72 h
# Outline: as §1
row,SMILES,normalised response
1,COc1cc2c(Oc3ccc4[nH]c(C)cc4c3F)ncnc2cc1OCCCN1CCCC1 [Cediranib] (1000 nM),78.4%
2,Nc1nc2[nH]cc(CCc3ccc(C(=O)N[C@@H](CCC(=O)O)C(=O)O)cc3)c2c(=O)[nH]1 [Pemetrexed] (10000 nM),81.1%
